“Also recorded” adds a separate entry of the source.
How the values were obtained:
DU145 derived subclones = assay: Western blot / immunostaining of EMT markers, Src/FAK activation and proliferation markers in DU145 derived subclones; assay type: cell-based, human; conditions: for expression of PCNA: 72 hours
Protocol: (§1) Western blot, Immunoprecipitation and Immunostaining. Cells were grown to 100% confluency and Western blot were performed as described before. Images were quantified with ImageJ software from NIH. Immunoprecipitation studies were performed as described before. α1 NKA immunostaining was performed by growing cells on sterilized coverslips in 6 well tissue culture plates and permeabilization/fixation with ice-cold methanol followed by blocking with 5% horse serum and 0.1% Triton X-100 in 1× Phosphate buffered saline (PBS) for 30 minutes. Coverslips were then stained with an anti-α1 NKA antibody (Millipore, Cat #05-369) at 1:100 dilution in 1% BSA (Bovine Serum Albumin) containing 1×PBS solution for overnight. Next day after three washes, coverslips were stained with Alexa Fluor 488 conjugated anti-mouse secondary antibody (Thermo-Fisher) for 1 hour, washed extensively and then imaged using a fluorescent microscope with GFP filter or confocal microscope (LEICA-DMIRE2). E-cadherin and occludin immunostaining was performed in a similar manner. Phospho-Src, phospho ERK1/2 immunostaining were performed as described before and images were taken with a LEICA DMIRE2 confocal microscope.
Next, it was tested whether MB5 as an inverse agonist of NKA receptor function could reverse EMT and stop invasion of PCa cells by rescuing α1 NKA expression in PCa. Subclone 5 and 2 cells were exposed to a long term treatment (0, 24, 48 and 72 hours) with 100 nM MB5.

[1] = pharmacokinetic (PK) and toxicity study in a mouse model; assay type: in vivo
YFP-tagged α1 NKA = target: T1, YFP-tagged α1 NKA (Rattus norvegicus, UniProt P06685); assay: ouabain-induced α1 NKA endocytosis in YFP-α1-TCN cells; assay type: cell-based; conditions: YFP-α1-TCN cells, pretreatment
T1 construct: expressed in transfected cells; host or cells: YFP-α1-TCN cells
Protocol: It is appreciated that ouabain induces Src/ERK activation (increased protein phosphorylation) of LLC-PK1 cells by binding to α1 NKA and thereby initiates a signaling cascade which results in the endocytosis of the α1 NKA to terminate the signaling.
α1 NKA endocytosis assay. Endocytosis assay was performed as described before.
Characterization of MB5 activity on the NKA receptor function known as the NKA/Src binary receptor mechanism was conducted in a pig kidney epithelial cells (LLC-PK1)-based platform using immunostaining and Western blot analyses. […] The change of NKA conformation that occurs upon binding of agonists such as ouabain, results in the release and activation of the Src kinase domain from the “Naktide” site of NKA CD3, while the other interaction (constitutive) persists between NKA CD2 and the SH2 domain of Src.

[2] = test system: DU145 or α1 knockdown cells (KD) xenograft; assay: tumor xenograft of DU145 or α1 KD cells in NOD/SCID mice; assay type: in vivo, mouse
Protocol: Mice studies. Animal protocols were approved by an Institutional Animal Care and Use Committee (IACUC) according to NIH guidelines. Tumor xenografts were established by subcutaneous injection of 5×10^6 cancer cells into the left and right flanks of 10-week-old male NOD/SCID mice (Charles River). Tumor length (L) and width (W) were measured with calipers weekly and tumor volume was estimated as V=(L×W^2)/2. After the tumor volumes reached approximately 100 mm^3, mice were sacrificed and tumors were harvested. Half of the tumors were used for protein extraction and the other half were digested with collagenase I solution (SIGMA) to isolate cancer cells.
For MB5 treatment, after tumor volume reached approximately 100 mm^3, mice were injected peritoneally with DMSO or MB5 at 20 mg/kg or 10 mg/kg daily and further monitored for tumor growth weekly. At the end of treatment period (about 2-3 weeks), tumors were harvested and tumor lysates were analyzed for protein expression by Western blot.
The therapeutic potential of MB5 in a tumor xenograft model was first tested by injecting DU145 or corresponding α1 knockdown cells (KD) into the right or left flank of 10-week-old NOD/SCID mice. The tumor growth was monitored twice weekly. Once the tumors reached a volume of approximately 100 mm^3, the animals received daily injections of MB5 at 20 mg/kg intraperitoneally for 3.5 weeks. […] Next, it was determined whether MB5 could decrease tumor growth of highly aggressive subclones derived from DU145. […] FIG. 26E summarizes the effect of MB5 treatment on all types of xenografted tumor growth from DU145 and derivative cell lines.

KD cells from C4-2 = assay: Western blot of EMT phenotype in α1 KD cells derived from C4-2; assay type: cell-based, human; conditions: KD cells from C4-2, 1 μM
Protocol: Cell lines. DU145, PC3 and C4-2 cell lines were purchased from and maintained according to ATCC recommendations. Parental DU145 and derived cell lines were cultured in high glucose […] supplemented with 10% Fetal Bovine Serum and 1% Penicillin/Streptomycin in 37° c. humidified incubator with 5% C02. LLC-PK1, PY17, Y260A, A425P and YFP-α1TCN cells were cultured in the same media and under similar conditions. PC3 and C4-2 cell lines were cultured in RPMI medium with similar conditions as described above. α1 knockdown KD cells were generated from DU145 and C4-2 using a α1 NKA-specific siRNA, as previously described. Knockdown was verified by both qPCR and Western blot analyses. Rat α1 NKA rescued cell lines were generated by transfecting KD cells with a pRC/CMV-α1 AACm1 vector followed by selection with ouabain (2 μM), as previously described. Cells were passaged for three generations without ouabain before conducting experiments.
Western blot, Immunoprecipitation and Immunostaining. Cells were grown to 100% confluency and Western blot were performed as described before. Images were quantified with ImageJ software from NIH. […]

plasma stability = assay type: in vitro ADME
PY17 cells = assay: basal ERK phosphorylation in PY17 cells; assay type: cell-based, pig
Protocol: as §1, with “microscope. […]” for “microscope.”

[3] = Western blot, 100 nM, up to 72 hours

Question: Which “Src, FAK activation and Myc expression” value (DU145 derived subclones; 100 nM, subclones 5 and 2) does the source give for `O=c1c2cccc(O)c2oc2c(O)c(O)ccc12` [MB5] here?
Answer: significant decrease

Question: What about the “expression of mesenchymal markers (SNAIL, ZEB1)” value (DU145 derived subclones; [3]) of the same compound?
Answer: downregulating; also recorded: decreased expression of mesenchymal markers

Question: And the “α1 NKA and E-cadherin expression” value (DU145 derived subclones; [3])?
Answer: increasing; also recorded: significant time-dependent increase; also recorded: increased α1 NKA and E-cadherin expression

Question: And the “expression of PCNA” value (DU145 derived subclones; subclone 2, 100 nM)?
Answer: significantly reduced

Question: What about the “expression of PCNA” value (DU145 derived subclones; subclone 5, 100 nM) of the same compound?
Answer: abolished

Question: And the “systemic exposure level versus dose” value ([1]; 50-200 mg/kg after oral administration)?
Answer: proportional to dose level

Question: And the toxic effects ([1]; after more than 1 month of administration)?
Answer: No detectable toxic effects

Question: And the “removal by secondary metabolism” value ([1]; most likely by UGT enzymes)?
Answer: quickly removed by secondary metabolism

Question: And the toxicity ([1]; mouse, in vivo)?
Answer: quite non-toxic

Question: And the “inhibition of ouabain-induced α1 NKA endocytosis” value (YFP-tagged α1 NKA)?
Answer: able to inhibit ouabain-induced α1 NKA endocytosis; also recorded: potent inverse agonist of ouabain-induced α1 NKA endocytosis; also recorded: inhibited ouabain-induced α1 NKA endocytosis in a concentration dependent manner

Question: What about the “reduction of tumor growth” value ([2]; 20 mg/kg daily intraperitoneally for 3.5 weeks, DU145 and KD groups) of the same compound?
Answer: about 70%

Question: And the bodyweight ([2]; 20 mg/kg, NOD/SCID mice)?
Answer: without significantly affecting bodyweight

Question: And the tumor growth ([2]; 20 mg/kg/day, DU145 or KD cells)?
Answer: reduces tumor growth

Question: And the tumor growth ([2]; all tested cell lines xenografted into NOD/SCID mice)?
Answer: significantly reduced tumor growth from all tested cell lines

Question: And the “expression of SNAIL, SLUG and Myc” value (KD cells from C4-2)?
Answer: inhibiting the expression of SNAIL, SLUG and Myc

Question: What about the “occludin and E-cadherin expression” value (KD cells from C4-2) of the same compound?
Answer: upregulate occludin and E-cadherin expression

Question: And the plasma stability (plasma stability)?
Answer: good plasma stability

Question: And the “basal ERK phosphorylation” value (PY17 cells)?
Answer: inhibited ERK phosphorylation in a dose-dependent manner

From patent US20230130102A1, “Na/K-ATPase LIGANDS AND USE THEREOF FOR TREATMENT OF CANCER” (Marshall University Research Corporation, priority 2019, published 2023)
